Laboratory results as given in patent US6939534B2, “Method to treat pulmonary hypoplasia in the newborn” (GenoMed, LLC, priority 2001, dated 2005).

Tests used:
[1] = inhaled; cited from earlier work
[2] = Stability under acidification (pH 1-2) and heating (100° C. for 5 min); format: physicochemical; conditions: acidification to pH 1-2, heating to 100° C. for 5 min
Experimental: Since the EGF receptor can be activated by either EGF or transforming growth factor-α (TGF-α), and TGF-α is important in fetal development, and is also elaborated by the distal nephron, the EGF and TGF-α content of human amniotic fluid was measured, using specific radioimmunoassays and immunoprecipitation and immunoblotting. […] EGF, but not TGF-α, is stable under these conditions. […] In neonates, mature EGF (6 kD) is the predominant form in urine.
No significant concentration (<0.6 ng/ml) of TGF-α or EGF in human amniotic fluid was detectable directly by RIA or RRA.

[3] = animal models; cited from earlier work
type II pneumocytes = conditions: applied to type II pneumocytes in culture; cited from earlier work

| Molecule | half-life [1] | stability [2] | toxicity [3] | production of surfactant (type II pneumocytes) |
| --- | --- | --- | --- | --- |
| [N]=O [inhaled nitric oxide, nitric oxide] | very short |  |  |  |
| epidermal growth factor [EGF] |  | stable | no toxicity | stimulates production of surfactant |
